Test [1] has as its system honeybee larvae. In words: Effect of inducing differentiation to queen bees (honeybee artificial breeding, peptide in artificial diet). It is filed as in vivo, Western honeybees (Apis mellifela). Here is the method:
Functional analysis was carried out by using the royal jelly peptide obtained in Example 6. Specifically, honeybees were bred according to the existing honeybee artificial breeding method. In this process, 500 ng of the royal jelly peptide was added in the artificial diet to be administered per honeybee. On the other hand, for the control group, bovine serum albumin was used in place of the royal jelly peptide.
The growth rate from larvae to imagines is about 20%. […] From this, it can be considered that the royal jelly peptide of the invention of this invention is […] having an auxiliary function in inducing differentiation to queen bees.

Test [2] has as its system lymphocyte cell derived from a mouse spleen. Kind of test: Immunity activation test (alamar blue, lymphocyte growth). Particulars: 3 μg/ml and 6 μg/ml, every 12 hours for 4 days, compared with no addition (FIG. 9). It is filed as cell-based, ICR type mice. Here is the method: For the laboratory animal, ICR type mice (female, Nippon SLC) were used.
Whereas, for the medium, an RPMI medium (manufactured by Nissui Pharmaceutical Co., Ltd.) containing 10% fetal calf serum (FCS), 2 mM L-glutamine, 50 μM 2-mercaptoethanol, 100 Units/ml penicillin, and 100 μg/ml streptomycin was used. Thus, culturing was carried out in 5% CO2 at 37° C. under wet conditions.
Namely, the mice anesthetized with diethyl ether were subjected to cervical vertebrae dislocation, and fixed. Then, by using scissors for dissection and tweezers, the spleen was excised, and transferred to a dish containing therein 10 ml of PBS (−) (137 mM NaCl, 2.7 mM KCl, 2 mM Na2HPO4-12HyO, 1.5 mM KH2PO4). In the dish, the spleen was homogenized. […]
The lymph cell suspension controlled was dyed with a 0.4% trypan blue solution, and the number of cells was counted by means of a Burker-Turk hemocytomer. […]
The lymph cell suspension controlled in the item <bb was added in an amount of 100 μl per well into a 96-well microplate (manufactured by IWAKI Co.). […] Thus, the changes in absorbance were measured by means of a microplate reader (manufactured by Nalge Nunc International Co.) set at a wavelength of 590 to 620 nm every 12 hours for 4 days to analyze the effects of each fraction and isolated compound on the lymphocytes. […]
In general terms: The colour change of resazurin is a common sign of viable cells or microbes.

Where [3] appears, read: 500 ng per honeybee in artificial diet, 24 first instar larvae.
Setting [4] is: 500 ng per honeybee in artificial diet, number among imagines.

Regarding “apisimin (KTSISVKGESNVDVVSQINSLVSSIVSGANVSAVLLAQTLVNILQILIDANVFA) [Recombinant peptide, Royal jelly peptide of 54 amino acid residues (apisimin), expressed in E. coli as thioredoxin fusion, cleaved with Factor Xa]”, in test [1] (setting [3]), the Number of imagines is given as 4, the “Number of last instar larvae” value turned out to be 14 and the Number of pupae was found to be 8. In addition, in test [1] (setting [4]), the “Caste: Intermediates” value is 1, the “Caste: Queen” value is listed as 0 and the “Caste: Working bee” value is reported as 3. The “growth rate from larvae to imagines” value in test [1] (Table 1 experiment) is reported as “about 20%”. For the same substance, the “emergence of intermediates out of the larvae” value in test [1] (larvae to which the royal jelly peptide had been administered) is “intermediates can be allowed to emerge”. Moreover, the “effect on the growth of lymphocyte cells (alamar blue absorbance)” value in test [2] is listed as “remarkably exhibited”.

Source of the values: US20080305995A1, “Royal Jelly Peptide and Composition Containing the Same” (priority 2003, published 2008).
